Experimental findings from US20240158446A1, “CYCLIC COMPOUND HAVING SELECTIVE INHIBITORY ACTION ON KRAS OVER HRAS AND NRAS” (CHUGAI SEIYAKU KABUSHIKI KAISHA, priority 2021, published 2024) are described below.

pKd: −log10 of the molar value.

Test [1] addresses GDP-bound NRAS wild-type protein (Homo sapiens, UniProt P01111). The test is described as follows: Binding to NRAS by surface plasmon resonance (SPR), Single Cycle Kinetics. The conditions noted are these: SPR; GDP-bound NRAS wild-type protein vs GDP-bound KRAS wild-type protein; KD ratio class. In general terms: Surface plasmon resonance follows binding to a sensor surface in real time, without labels.

For test [2], the target named is GDP-bound KRAS wild-type protein (Homo sapiens, UniProt P01116). The test is described as follows: Binding to KRAS by surface plasmon resonance (SPR), Single Cycle Kinetics. Conditions: SPR, Single Cycle Kinetics, 1:1 binding model; GDP-bound KRAS wild-type protein; read-out: KRAS KD.
GDP-bound KRAS wild-type protein, sequence (P01116 whole entry): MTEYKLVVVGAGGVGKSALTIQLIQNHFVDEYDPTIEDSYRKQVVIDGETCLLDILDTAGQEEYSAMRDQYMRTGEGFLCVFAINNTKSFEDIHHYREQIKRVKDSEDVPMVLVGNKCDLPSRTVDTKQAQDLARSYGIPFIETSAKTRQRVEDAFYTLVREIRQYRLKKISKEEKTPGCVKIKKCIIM
Test [3] concerns the target GDP-bound HRAS wild-type protein (Homo sapiens, UniProt P01112). Kind of test: Binding to HRAS by surface plasmon resonance (SPR), Single Cycle Kinetics. The conditions noted are these: SPR; GDP-bound HRAS wild-type protein vs GDP-bound KRAS wild-type protein; KD ratio class.

GDP-bound HRAS wild-type protein, sequence (P01112 whole entry): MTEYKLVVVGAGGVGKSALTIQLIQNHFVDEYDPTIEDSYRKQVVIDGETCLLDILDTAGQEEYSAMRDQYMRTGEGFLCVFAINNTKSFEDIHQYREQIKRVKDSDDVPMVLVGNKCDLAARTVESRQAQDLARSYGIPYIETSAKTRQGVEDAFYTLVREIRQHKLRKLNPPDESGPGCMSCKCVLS
GDP-bound NRAS wild-type protein, sequence (P01111 whole entry): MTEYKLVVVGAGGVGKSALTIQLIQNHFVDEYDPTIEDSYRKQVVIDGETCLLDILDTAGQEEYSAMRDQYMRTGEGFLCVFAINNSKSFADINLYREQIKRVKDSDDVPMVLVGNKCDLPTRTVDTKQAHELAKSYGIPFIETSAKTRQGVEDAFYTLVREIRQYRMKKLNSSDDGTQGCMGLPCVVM

In the case of `CCO[C@@H]1C[C@H]2C(=O)NC3(CCC3)C(=O)N(C)[C@@H](C3CCCC3)C(=O)N(C)[C@H](C(=O)N(C)CCOC)CC(=O)N(C)[C@@H](CC)C(=O)N[C@@H]([C@@H](C)CC)C(=O)N(C)CC(=O)N(C)[C@H]3C/C=C\CCN(C3=O)[C@@H](Cc3ccc(C(F)(F)F)cc3)C(=O)N(C)CC(=O)N[C@@H](CCc3ccc4sccc4c3)C(=O)N2C1` [PP1322], the “NRAS/KRAS (ratio of KD value for NRAS to KD value for KRAS)” value in test [1] is “A (a compound having 10 or more and less than 20 is denoted as A)”. The pKd in test [2] was 9.23. In addition, in test [3], the “HRAS/KRAS (ratio of KD value for HRAS to KD value for KRAS)” value was “A (a compound having 10 or more and less than 20 is denoted as A)”.
`CCO[C@@H]1C[C@H]2C(=O)NC3(CCC3)C(=O)N(C)[C@@H](C3CCCC3)C(=O)N(C)[C@H](C(=O)N(C)CCOC)CC(=O)N(C)[C@@H](CC(C)C)C(=O)N[C@@H]([C@@H](C)CC)C(=O)N(C)CC(=O)N(C)[C@H]3C/C=C\CCN(C3=O)[C@@H](Cc3ccc(C(F)(F)F)cc3)C(=O)N(C)CC(=O)N[C@@H](CCc3ccc(C(F)(F)F)c(OC)c3)C(=O)N2C1` [PP1324, (2S,8S,12R,14S,20S,23S,27S,30S,36S,38Z)-20-cyclopentyl-12-ethoxy-27-isobutyl-N-(2-methoxyethyl)-8-[2-[3-methoxy-4-(trifluoromethyl)phenyl]ethyl]-N,4,19,22,26,32,35-heptamethyl-30-[(1S)-1-methylpropyl]-3,6,9,15,18,21,25,28,31,34,42-undecaoxo-2-[[4-(trifluoromethyl)phenyl]methyl]spiro[1,4,7,10,16,19,22,26,29,32,35-undecazatricyclo[34.5.1.0^10,14]dotetracont-38-ene-17,1′-cyclobutane]-23-carboxamide]: the “NRAS/KRAS (ratio of KD value for NRAS to KD value for KRAS)” value in test [1] was “A (a compound having 10 or more and less than 20 is denoted as A)”. Besides, the pKd in test [2] was 10.03. Moreover, the “HRAS/KRAS (ratio of KD value for HRAS to KD value for KRAS)” value in test [3] is “A (a compound having 10 or more and less than 20 is denoted as A)”.
Take `CCO[C@@H]1C[C@H]2C(=O)NC3(CCC3)C(=O)N(C)[C@@H](C3CCCC3)C(=O)N(C)[C@H](C(=O)N(C)CCOC)CC(=O)N(C)[C@@H](CC(C)C)C(=O)N[C@@H]([C@@H](C)CC)C(=O)N(C)CC(=O)N(C)[C@H]3C/C=C\CCN(C3=O)[C@@H](Cc3ccc(C(F)(F)F)cc3)C(=O)N(C)CC(=O)N[C@@H](CCc3ccc4sccc4c3)C(=O)N2C1` [PP1325]: the “NRAS/KRAS (ratio of KD value for NRAS to KD value for KRAS)” value in test [1] is “A (a compound having 10 or more and less than 20 is denoted as A)”. Moreover, the pKd in test [2] was 9.26. The “HRAS/KRAS (ratio of KD value for HRAS to KD value for KRAS)” value in test [3] is “A (a compound having 10 or more and less than 20 is denoted as A)”.
For the compound `CCO[C@@H]1C[C@H]2C(=O)NC3(CCC3)C(=O)N(C)[C@@H](C3CCCC3)C(=O)N(C)[C@H](C(=O)N(C)CCOC)CC(=O)N(C)[C@@H](CC(C)C)C(=O)N[C@@H]([C@@H](C)CC)C(=O)N(C)CC(=O)N(C)[C@H]3C/C=C\CCN(C3=O)[C@@H](Cc3ccc(C(F)(F)F)cc3)C(=O)N(C)CC(=O)N[C@@H](CCc3ccc(Cl)c(Cl)c3)C(=O)N2C1` [PP1326], the “NRAS/KRAS (ratio of KD value for NRAS to KD value for KRAS)” value in test [1] was “AA (a compound having 20 or more is denoted as AA)”. Also, the pKd in test [2] is 9.57. Further, the “HRAS/KRAS (ratio of KD value for HRAS to KD value for KRAS)” value in test [3] was “A (a compound having 10 or more and less than 20 is denoted as A)”.
As to `CCO[C@@H]1C[C@H]2C(=O)NC3(CCC3)C(=O)N(C)[C@@H](C3CCCC3)C(=O)N(C)[C@H](C(=O)N(C)CCOC)CC(=O)N(C)[C@@H](CC3CC3)C(=O)N[C@@H]([C@@H](C)CC)C(=O)N(C)CC(=O)N(C)[C@H]3C/C=C\CCN(C3=O)[C@@H](Cc3ccc(C(F)(F)F)cc3)C(=O)N(C)CC(=O)N[C@@H](CCc3ccc(C(F)(F)F)c(OC)c3)C(=O)N2C1` [PP1327], the “NRAS/KRAS (ratio of KD value for NRAS to KD value for KRAS)” value in test [1] is “A (a compound having 10 or more and less than 20 is denoted as A)”. Further, in test [2], the pKd is 9.96. Besides, the “HRAS/KRAS (ratio of KD value for HRAS to KD value for KRAS)” value in test [3] is “A (a compound having 10 or more and less than 20 is denoted as A)”.
`CCO[C@@H]1C[C@H]2C(=O)NC3(CCC3)C(=O)N(C)[C@@H](C3CCCC3)C(=O)N(C)[C@H](C(=O)N(C)CCOC)CC(=O)N(C)[C@@H](CC3CC3)C(=O)N[C@@H]([C@@H](C)CC)C(=O)N(C)CC(=O)N(C)[C@H]3C/C=C\CCN(C3=O)[C@@H](Cc3ccc(C(F)(F)F)cc3)C(=O)N(C)CC(=O)N[C@@H](CCc3ccc4sccc4c3)C(=O)N2C1` [PP1328]: the “NRAS/KRAS (ratio of KD value for NRAS to KD value for KRAS)” value in test [1] was “A (a compound having 10 or more and less than 20 is denoted as A)”. In addition, the pKd in test [2] was 9.25. In test [3], the “HRAS/KRAS (ratio of KD value for HRAS to KD value for KRAS)” value is “A (a compound having 10 or more and less than 20 is denoted as A)”.
In the case of `CCO[C@@H]1C[C@H]2C(=O)NC3(CCC3)C(=O)N(C)[C@@H](C(CC)CC)C(=O)N(C)[C@H](C(=O)N(C)CCOC)CC(=O)N(C)[C@@H](CC)C(=O)N[C@@H]([C@@H](C)CC)C(=O)N(C)CC(=O)N(C)[C@H]3C/C=C\CCN(C3=O)[C@@H](Cc3ccc(C(F)(F)F)cc3)C(=O)N(C)CC(=O)N[C@@H](CCc3cc(F)c(C(F)(F)F)c(F)c3)C(=O)N2C1` [PP1330], the “NRAS/KRAS (ratio of KD value for NRAS to KD value for KRAS)” value in test [1] is recorded as “AA (a compound having 20 or more is denoted as AA)”. The pKd in test [2] was 9.38. Also, in test [3], the “HRAS/KRAS (ratio of KD value for HRAS to KD value for KRAS)” value is “A (a compound having 10 or more and less than 20 is denoted as A)”.
Consider `CCC[C@H]1C(=O)N[C@@H]([C@@H](C)CC)C(=O)N(C)CC(=O)N(C)[C@H]2C/C=C\CCN(C2=O)[C@@H](Cc2ccc(C(F)(F)F)cc2)C(=O)N(C)CC(=O)N[C@@H](CCc2cc(F)c(C(F)(F)F)c(F)c2)C(=O)N2C[C@H](OCC)C[C@H]2C(=O)NC2(CCC2)C(=O)N(C)[C@@H](C2CCCC2)C(=O)N(C)[C@H](C(=O)N(C)CCOC)CC(=O)N1C` [PP1331, (2S,8S,12R,14S,20S,23S,27S,30S,36S,38Z)-20-cyclopentyl-8-[2-[3,5-difluoro-4-(trifluoromethyl)phenyl]ethyl]-12-ethoxy-N-(2-methoxyethyl)-N,4,19,22,26,32,35-heptamethyl-30-[(1S)-1-methylpropyl]-3,6,9,15,18,21,25,28,31,34,42-undecaoxo-27-propyl-2-[[4-(trifluoromethyl)phenyl]methyl]spiro[1,4,7,10,16,19,22,26,29,32,35-undecazatricyclo[34.5.1.0^10,14]dotetracont-38-ene-17,1′-cyclobutane]-23-carboxamide], for which the “NRAS/KRAS (ratio of KD value for NRAS to KD value for KRAS)” value in test [1] is “A (a compound having 10 or more and less than 20 is denoted as A)”. The pKd in test [2] was 10.10. The “HRAS/KRAS (ratio of KD value for HRAS to KD value for KRAS)” value in test [3] was “A (a compound having 10 or more and less than 20 is denoted as A)”.
Regarding `CCO[C@@H]1C[C@H]2C(=O)NC3(CCC3)C(=O)N(C)[C@@H](C3CCCC3)C(=O)N(C)[C@H](C(=O)N3CCOCC3)CC(=O)N(C)[C@@H](CC(C)C)C(=O)N[C@@H]([C@@H](C)CC)C(=O)N(C)CC(=O)N(C)[C@H]3CC/C=C(/C)CN(C3=O)[C@@H](Cc3ccc(C(F)(F)F)cc3)C(=O)N(C)CC(=O)N[C@@H](CCc3cc(F)c(C(F)(F)F)c(F)c3)C(=O)N2C1` [PP1333], the “NRAS/KRAS (ratio of KD value for NRAS to KD value for KRAS)” value in test [1] is “C (A compound having a KD ratio of 0.1 or more and less than 3 is denoted as C)”. The pKd in test [2] is 7.24. In addition, the “HRAS/KRAS (ratio of KD value for HRAS to KD value for KRAS)” value in test [3] was “B (a compound having 3 or more and less than 10 is denoted as B)”.

Usually pKd stands for the Kd on a negative log10 scale, so that one unit is a factor of ten.
